Experimental data: the supplement of paper PMC10307832

What was measured:
Assay in all cases: relative viability (nuclei count vs DMSO), 5 days (fraction); higher = more cells survive
[1] = tested on: NCI-H2085
In short: (§1)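 Lung cancer cell lines were seeded in 1536-well plates and dosed by pin tool the next day, with either a single drug or a fixed anchor-drug dose combined with five library-drug doses (not always all listed) spaced in √10 steps. Five days later, one step fixed the cells and stained their nuclei (final 0.05% Triton X-100, 1% formaldehyde, 1 ug/ml Hoechst), and nuclei were counted on 4× images. Relative viability is the nuclei count in treated wells divided by the count in vehicle wells, and each value is the median of duplicate plates.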

[2] = tested on: NCI-H1648
In short: as §1

[3] = tested on: NCI-H2126
In short: as §1

[4] = tested on: RERF-LC-KJ
In short: as §1

[5] = tested on: HCC-44
In short: as §1

[6] = tested on: NCI-H1623
In short: as §1

[7] = tested on: EKVX
In short: as §1

[8] = tested on: ABC-1
In short: as §1

[9] = tested on: NCI-H1993
In short: as §1

Compound: Cc1sc2c(c1C)C(c1ccc(Cl)cc1)=N[C@@H](CC(=O)OC(C)(C)C)c1nnc(C)n1-2 [JQ1] + COc1cccc2cc(-c3nc([C@H]4CC[C@H](C(=O)O)CC4)n4ncnc(N)c34)[nH]c12 [OSI-027] (partner 0.5 µM)
- relative viability ([1]; first compound 0.04 µM): 0.763
- relative viability ([1]; first compound 0.1265 µM): 0.519
- relative viability ([1]; first compound 0.4 µM): 0.574
- relative viability ([1]; first compound 1.265 µM): 0.368
- relative viability ([1]; first compound 4 µM): 0.323
- relative viability ([2]; first compound 0.04 µM): 0.285
- relative viability ([2]; first compound 0.1265 µM): 0.287
- relative viability ([2]; first compound 0.4 µM): 0.304
- relative viability ([2]; first compound 1.265 µM): 0.206
- relative viability ([2]; first compound 4 µM): 0.274
- relative viability ([3]; first compound 0.04 µM): 0.712
- relative viability ([3]; first compound 0.1265 µM): 0.72
- relative viability ([3]; first compound 0.4 µM): 0.739
- relative viability ([3]; first compound 1.265 µM): 0.552
- relative viability ([3]; first compound 4 µM): 0.431
- relative viability ([4]; first compound 0.04 µM): 0.634
- relative viability ([4]; first compound 0.1265 µM): 0.518
- relative viability ([4]; first compound 0.4 µM): 0.531
- relative viability ([4]; first compound 1.265 µM): 0.335
- relative viability ([4]; first compound 4 µM): 0.338
- relative viability ([5]; first compound 0.04 µM): 0.477
- relative viability ([5]; first compound 0.1265 µM): 0.293
- relative viability ([5]; first compound 0.4 µM): 0.484
- relative viability ([5]; first compound 1.265 µM): 0.288
- relative viability ([5]; first compound 4 µM): 0.214
- relative viability ([6]; first compound 0.04 µM): 0.446
- relative viability ([6]; first compound 0.1265 µM): 0.433
- relative viability ([6]; first compound 0.4 µM): 0.363
- relative viability ([6]; first compound 1.265 µM): 0.328
- relative viability ([6]; first compound 4 µM): 0.291
- relative viability ([7]; first compound 0.04 µM): 0.698
- relative viability ([7]; first compound 0.1265 µM): 0.587
- relative viability ([7]; first compound 0.4 µM): 0.722
- relative viability ([7]; first compound 1.265 µM): 0.571
- relative viability ([7]; first compound 4 µM): 0.488
- relative viability ([8]; first compound 0.04 µM): 0.452
- relative viability ([8]; first compound 0.1265 µM): 0.352
- relative viability ([8]; first compound 0.4 µM): 0.322
- relative viability ([8]; first compound 1.265 µM): 0.187
- relative viability ([8]; first compound 4 µM): 0.212
- relative viability ([9]; first compound 0.04 µM): 0.511
- relative viability ([9]; first compound 0.1265 µM): 0.608
- relative viability ([9]; first compound 0.4 µM): 0.623
- relative viability ([9]; first compound 1.265 µM): 0.537
- relative viability ([9]; first compound 4 µM): 0.538

Compound: Cc1sc2c(c1C)C(c1ccc(Cl)cc1)=N[C@@H](CC(=O)OC(C)(C)C)c1nnc(C)n1-2 [JQ1] + Cc1cc(Nc2cc(N3CCN(C)CC3)nc(Sc3ccc(NC(=O)C4CC4)cc3)n2)n[nH]1 [Tozasertib] (partner 0.1 µM)
- relative viability ([1]; first compound 0.04 µM): 0.761
- relative viability ([1]; first compound 0.1265 µM): 0.727
- relative viability ([1]; first compound 0.4 µM): 0.63
- relative viability ([1]; first compound 1.265 µM): 0.414
- relative viability ([1]; first compound 4 µM): 0.328
- relative viability ([2]; first compound 0.04 µM): 0.495
- relative viability ([2]; first compound 0.1265 µM): 0.516
- relative viability ([2]; first compound 0.4 µM): 0.243
- relative viability ([2]; first compound 1.265 µM): 0.153
- relative viability ([2]; first compound 4 µM): 0.137
- relative viability ([3]; first compound 0.04 µM): 0.8
- relative viability ([3]; first compound 0.1265 µM): 0.849
- relative viability ([3]; first compound 0.4 µM): 0.607
- relative viability ([3]; first compound 1.265 µM): 0.419
- relative viability ([3]; first compound 4 µM): 0.31
- relative viability ([4]; first compound 0.04 µM): 0.496
- relative viability ([4]; first compound 0.1265 µM): 0.299
- relative viability ([4]; first compound 0.4 µM): 0.315
- relative viability ([4]; first compound 1.265 µM): 0.222
- relative viability ([4]; first compound 4 µM): 0.213
- relative viability ([5]; first compound 0.04 µM): 0.888
- relative viability ([5]; first compound 0.1265 µM): 0.345
- relative viability ([5]; first compound 0.4 µM): 0.326
- relative viability ([5]; first compound 1.265 µM): 0.286
- relative viability ([5]; first compound 4 µM): 0.136
- relative viability ([6]; first compound 0.04 µM): 0.493
- relative viability ([6]; first compound 0.1265 µM): 0.367
- relative viability ([6]; first compound 0.4 µM): 0.404
- relative viability ([6]; first compound 1.265 µM): 0.375
- relative viability ([6]; first compound 4 µM): 0.335
- relative viability ([7]; first compound 0.04 µM): 0.317
- relative viability ([7]; first compound 0.1265 µM): 0.361
- relative viability ([7]; first compound 0.4 µM): 0.336
- relative viability ([7]; first compound 1.265 µM): 0.247
- relative viability ([7]; first compound 4 µM): 0.185
- relative viability ([8]; first compound 0.04 µM): 0.187
- relative viability ([8]; first compound 0.1265 µM): 0.18
- relative viability ([8]; first compound 0.4 µM): 0.196
- relative viability ([8]; first compound 1.265 µM): 0.175
- relative viability ([8]; first compound 4 µM): 0.179
- relative viability ([9]; first compound 0.04 µM): 0.509
- relative viability ([9]; first compound 0.1265 µM): 0.62
- relative viability ([9]; first compound 0.4 µM): 0.513
- relative viability ([9]; first compound 1.265 µM): 0.424
- relative viability ([9]; first compound 4 µM): 0.489

Compound: COc1cc2nccc(Oc3ccc(NC(=O)Nc4cc(C)on4)c(Cl)c3)c2cc1OC [Tivozanib] + COc1cccc2cc(-c3nc([C@H]4CC[C@H](C(=O)O)CC4)n4ncnc(N)c34)[nH]c12 [OSI-027] (partner 0.5 µM)
- relative viability ([1]; first compound 0.005 µM): 0.757
- relative viability ([1]; first compound 0.01581 µM): 0.66
- relative viability ([1]; first compound 0.05 µM): 0.817
- relative viability ([1]; first compound 0.1581 µM): 0.382
- relative viability ([1]; first compound 0.5 µM): 0.528
- relative viability ([2]; first compound 0.005 µM): 0.255
- relative viability ([2]; first compound 0.01581 µM): 0.25
- relative viability ([2]; first compound 0.05 µM): 0.221
- relative viability ([2]; first compound 0.1581 µM): 0.218
- relative viability ([2]; first compound 0.5 µM): 0.258
- relative viability ([3]; first compound 0.005 µM): 0.655
- relative viability ([3]; first compound 0.01581 µM): 0.701
- relative viability ([3]; first compound 0.05 µM): 0.776
- relative viability ([3]; first compound 0.5 µM): 0.691
- relative viability ([4]; first compound 0.005 µM): 0.458
- relative viability ([4]; first compound 0.01581 µM): 0.62
- relative viability ([4]; first compound 0.05 µM): 0.657
- relative viability ([4]; first compound 0.1581 µM): 0.415
- relative viability ([4]; first compound 0.5 µM): 0.59
- relative viability ([5]; first compound 0.005 µM): 0.483
- relative viability ([5]; first compound 0.01581 µM): 0.544
- relative viability ([5]; first compound 0.05 µM): 0.485
- relative viability ([5]; first compound 0.1581 µM): 0.41
- relative viability ([5]; first compound 0.5 µM): 0.464
- relative viability ([6]; first compound 0.005 µM): 0.414
- relative viability ([6]; first compound 0.01581 µM): 0.445
- relative viability ([6]; first compound 0.05 µM): 0.431
- relative viability ([6]; first compound 0.1581 µM): 0.407
- relative viability ([6]; first compound 0.5 µM): 0.459
- relative viability ([7]; first compound 0.005 µM): 0.665
- relative viability ([7]; first compound 0.01581 µM): 0.735
- relative viability ([7]; first compound 0.05 µM): 0.67
- relative viability ([7]; first compound 0.1581 µM): 0.585
- relative viability ([7]; first compound 0.5 µM): 0.731
- relative viability ([8]; first compound 0.005 µM): 0.456
- relative viability ([8]; first compound 0.01581 µM): 0.509
- relative viability ([8]; first compound 0.05 µM): 0.462
- relative viability ([8]; first compound 0.1581 µM): 0.359
- relative viability ([8]; first compound 0.5 µM): 0.395
- relative viability ([9]; first compound 0.005 µM): 0.503
- relative viability ([9]; first compound 0.01581 µM): 0.534
- relative viability ([9]; first compound 0.05 µM): 0.543
- relative viability ([9]; first compound 0.1581 µM): 0.518
- relative viability ([9]; first compound 0.5 µM): 0.429

Compound: COc1cc2nccc(Oc3ccc(NC(=O)Nc4cc(C)on4)c(Cl)c3)c2cc1OC [Tivozanib] + Cc1cc(Nc2cc(N3CCN(C)CC3)nc(Sc3ccc(NC(=O)C4CC4)cc3)n2)n[nH]1 [Tozasertib] (partner 0.1 µM)
- relative viability ([1]; first compound 0.005 µM): 0.806
- relative viability ([1]; first compound 0.01581 µM): 0.699
- relative viability ([1]; first compound 0.05 µM): 0.905
- relative viability ([1]; first compound 0.1581 µM): 0.985
- relative viability ([1]; first compound 0.5 µM): 0.812
- relative viability ([2]; first compound 0.005 µM): 0.482
- relative viability ([2]; first compound 0.01581 µM): 0.534
- relative viability ([2]; first compound 0.05 µM): 0.436
- relative viability ([2]; first compound 0.1581 µM): 0.536
- relative viability ([2]; first compound 0.5 µM): 0.545
- relative viability ([3]; first compound 0.005 µM): 0.804
- relative viability ([3]; first compound 0.01581 µM): 0.846
- relative viability ([3]; first compound 0.05 µM): 0.915
- relative viability ([3]; first compound 0.1581 µM): 0.667
- relative viability ([3]; first compound 0.5 µM): 0.857
- relative viability ([4]; first compound 0.005 µM): 0.477
- relative viability ([4]; first compound 0.01581 µM): 0.482
- relative viability ([4]; first compound 0.05 µM): 0.533
- relative viability ([4]; first compound 0.1581 µM): 0.534
- relative viability ([4]; first compound 0.5 µM): 0.496
- relative viability ([5]; first compound 0.005 µM): 0.889
- relative viability ([5]; first compound 0.01581 µM): 0.9
- relative viability ([5]; first compound 0.05 µM): 0.839
- relative viability ([5]; first compound 0.1581 µM): 1.04
- relative viability ([5]; first compound 0.5 µM): 0.773
- relative viability ([6]; first compound 0.005 µM): 0.42
- relative viability ([6]; first compound 0.01581 µM): 0.467
- relative viability ([6]; first compound 0.05 µM): 0.47
- relative viability ([6]; first compound 0.5 µM): 0.424
- relative viability ([7]; first compound 0.005 µM): 0.443
- relative viability ([7]; first compound 0.01581 µM): 0.356
- relative viability ([7]; first compound 0.05 µM): 0.35
- relative viability ([7]; first compound 0.1581 µM): 0.47
- relative viability ([7]; first compound 0.5 µM): 0.474
- relative viability ([8]; first compound 0.005 µM): 0.167
- relative viability ([8]; first compound 0.01581 µM): 0.185
- relative viability ([8]; first compound 0.05 µM): 0.188
- relative viability ([8]; first compound 0.1581 µM): 0.159
- relative viability ([8]; first compound 0.5 µM): 0.168
- relative viability ([9]; first compound 0.005 µM): 0.559
- relative viability ([9]; first compound 0.01581 µM): 0.585
- relative viability ([9]; first compound 0.05 µM): 0.568
- relative viability ([9]; first compound 0.1581 µM): 0.485
- relative viability ([9]; first compound 0.5 µM): 0.513
